Columns and labels:
Homo sapiens [1] = species on record: Homo sapiens; assay: The compound was tested for inhibition of arachidonic acid(800 uM) induced platelet aggregation in human platelet rich plasma.; assay type: functional; conditions: read-out: I50
Homo sapiens [2] = species on record: Homo sapiens; assay: The compound was tested for inhibition of U-46,619(10 uM) induced platelet aggregation in human platelet rich plasma(PRP).; assay type: functional; conditions: read-out: I50
Thromboxane A2 receptor = biological target: T1, Thromboxane A2 receptor (Homo sapiens, UniProt P21731); assay: The compound was tested for inhibition of specific binding of [3H]-SQ 29,548 to thromboxane A2 receptor in human platelet membranes; assay type: cell membranes
T1 sequence (P21731 whole entry): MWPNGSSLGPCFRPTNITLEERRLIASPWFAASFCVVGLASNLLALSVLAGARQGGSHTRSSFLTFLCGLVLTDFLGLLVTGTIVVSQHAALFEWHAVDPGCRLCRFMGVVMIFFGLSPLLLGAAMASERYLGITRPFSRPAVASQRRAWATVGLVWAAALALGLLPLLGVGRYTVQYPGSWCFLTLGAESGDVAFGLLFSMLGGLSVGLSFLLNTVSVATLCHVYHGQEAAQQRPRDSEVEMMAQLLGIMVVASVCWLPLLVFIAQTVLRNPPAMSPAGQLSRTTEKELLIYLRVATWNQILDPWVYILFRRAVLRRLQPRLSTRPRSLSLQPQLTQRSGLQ

Mus musculus [3] = assay: The compound was tested in vivo for duration of action after 0.2 mg/kg peroral administration to protect from U-46,619-induced(2.0 mg/kg, iv) death in mice; assay type: ADME, organism-based; parameters: dose 0.2 mg/kg, route oral; conditions: po
Mus musculus [4] = assay: The compound was tested in vivo for duration of action after 10 mg/kg peroral administration to protect from U-46,619-induced(2.0 mg/kg, iv) death in mice; assay type: ADME, organism-based; parameters: dose 10 mg/kg, route oral; conditions: po

Compound	IC50 (Homo sapiens [1]) [nM]	IC50 (Homo sapiens [2]) [nM]	Kd (Thromboxane A2 receptor) [nM]	T50 (Mus musculus [3]) [h]	T50 (Mus musculus [4]) [h]
O=C(O)CCCc1ccccc1CC1C2CCC(O2)C1/C=N/NC(=O)Nc1ccccc1 (stereo not drawn)	12	72	21.1	8.7	
O=C(O)CCc1ccccc1CC1C2CCC(O2)C1/C=N/NC(=O)Nc1ccccc1 (stereo not drawn)	3	12	1	16	
O=C(O)COc1ccccc1CC1C2CCC(O2)C1/C=N/NC(=O)Nc1ccccc1 (stereo not drawn)	15	46	6	3.6	
O=C(O)Cc1cccc(CC2C3CCC(O3)C2/C=N/NC(=O)Nc2ccccc2)c1 (stereo not drawn)	370	4600	171	1.7	8.3

The next lines start with results.

IC50 (Homo sapiens [1]) [nM]	Compound	IC50 (Homo sapiens [2]) [nM]	Kd (Thromboxane A2 receptor) [nM]	T50 (Mus musculus [3]) [h]	T50 (Mus musculus [4]) [h]
688000	O=C(O)Cc1ccc(CCC2C3CCC(O3)C2/C=N/NC(=O)Nc2ccccc2)cc1 (stereo not drawn)				
230	O=C(O)CCC/C=C\CC1C2CCC(O2)C1/C=N/NC(=O)Nc1ccccc1 (stereo not drawn)	710	39.4		
7200	O=C(O)COc1cccc(CC2C3CCC(O3)C2/C=N/NC(=O)Nc2ccccc2)c1 (stereo not drawn)	25000	1200		
30000	O=C(O)Cc1cccc(CCC2C3CCC(O3)C2/C=N/NC(=O)Nc2ccccc2)c1 (stereo not drawn)	133000	1070		
310000	O=C(O)Cc1ccc(CC2C3CCC(O3)C2/C=N/NC(=O)Nc2ccccc2)cc1 (stereo not drawn)				
